# Measurements taken from patent US4678775A, “Method of controlling pests” (priority 1984, dated 1987).
# How the values were obtained:
# [1] = test system: tobacco hornworms (Manducca sexta); assay: In vivo leaf test (antifeeding) on tomato leaves with tobacco hornworm larvae; details: for effect of addition of IBMX on antifeeding / pesticidal activity: with PDE inhibitor IBMX
# [2] = Cyclic AMP analogue remaining after incubation with nerve cord homogenate; assay type: in vitro ADME, tobacco hornworm; details: in vitro 4 hours; IBMX 0.1 mM; FIG. 7
# Protocol: It has been previously shown, above, that PDE inhibition can increase the concentration of cyclic AMP in insect tissue. […] In order to do this, a fixed amount of butyl-benzylthio cyclic AMP was incubated in vitro for 4 hours in the presence of a tissue homogenated from tobacco hornworm nerve cord. In some tubes, IBMX (0.1 mM) was added to inhibit PDE. After the incubation, the amount of butyl-benzylthio cyclic AMP remaining was measured by protein binding assay (Brown et al., supra), using a standard curve based upon butyl-benzylthio cyclic AMP.
# [3] = test system: adenylate cyclase in nerve cord of tobacco hornworm; assay: Adenylate cyclase activation in broken cell preparations of tobacco hornworm nerve cord; assay type: biochemical, tobacco hornworm (Manducca sexta)
# Protocol: Otherwise, the procedure is identical to that described above.
# The tissue is homogenized (usually 15 mg/ml) as above in 6 mM Tris maleate, pH 7.4. […] This is done to cancel out the effects of dopamine and serotonin receptors which are usually present in nerve cord.
# As detailed previously, the adenylate cyclase assay, either in the firefly or in other insect pest, is also used to identify a direct stimulator of adenylate cyclase.
# [4] = molecular target: T1, Beta1 and Beta2-adrenergic-stimulated adenylate cyclase in rat liver (Rattus norvegicus, UniProt P10608); assay: Adenylate cyclase stimulation in rat liver; assay type: biochemical
# T1 construct: adenylate cyclase in rat heart and liver; from tissue; host or cells: rat liver
# [5] = molecular target: T2, dopamine-sensitive adenylate cyclase in rat caudate nucleus (Rattus norvegicus, UniProt P18901); assay: Adenylate cyclase stimulation in rat caudate nucleus; assay type: biochemical
# T2 construct: in the rat caudate nucleus; from tissue; host or cells: rat caudate nucleus
# [6] = test system: isolated tails of Photinus males; assay: Stimulation of light production after injection into transected, isolated firefly tails; assay type: in vivo; details: for EC50 for stimulated light emission: injected into isolated tails
# [7] = test system: octopamine-sensitive adenylate cyclase; assay: Activation of octopamine-sensitive adenylate cyclase, firefly light organ broken cell preparation; assay type: biochemical, Photinus pyralis
# [8] = molecular target: T3, Beta1 and Beta2-adrenergic-stimulated adenylate cyclase in rat heart (Rattus norvegicus, UniProt P18090); assay: Adenylate cyclase stimulation in rat heart; assay type: biochemical
# T3 construct: adenylate cyclase in rat heart and liver; from tissue; host or cells: rat heart
# [9] = test system: Beta1 and Beta2-adrenergic-stimulated adenylate cyclase in rat heart; assay: Adenylate cyclase stimulation in rat heart; assay type: biochemical
# [10] = test system: Beta1 and Beta2-adrenergic-stimulated adenylate cyclase in rat liver; assay: Adenylate cyclase stimulation in rat liver; assay type: biochemical
# [11] = test system: adenylate cyclase in the firefly lantern; assay: Direct activation of adenylate cyclase in firefly lantern (forskolin); assay type: biochemical, Photinus pyralis; details: FIG. 2, firefly lantern
# Excerpt: The second type of pest controlling compounds (2) useable in the present compositions are direct stimulators of the pest enzyme adenylate cyclase. These compounds bypass the receptor, and interact with one or another of the associated catalytic or regulatory subunits of adenylate cyclase, thereby stimulating the formation of cyclic AMP. Suitable compounds can be determined from assay of pest adenylate cyclase as described above.
# Specimens of Photinus pyralis were collected in summer, frozen on dry ice, and stored at -90°. […] For each experiment, a number of insects were thawed and maintained at 4° C. […]
# Adenylate cyclase activation by test compounds was measured in test tubes containing (in 0.3 ml) 80 mM Tris-maleate, pH 7.4; 10 mM theophylline; 8 mM MgCl2; 0.1 mM GTP; 0.5 mM ethylene glycol bis(beta-aminoethyl ether)-N,N,N',N'-tetraacetic acid; 2 mM ATP; 0.06 ml of P2 fractions; and the various compounds to be tested. Prior experiments had determined that, under these conditions, octopamine-sensitive adenylate cyclase activity is optimized. […] Cyclic AMP in the supernatant was measured by protein-binding assay, according to the method of Brown et al., Adv. […] Protein concentration was determined by the method of Lowry et al., Journal of Biological Chemistry 193: 265-275 (1951). […]
# [12] = test system: octopamine-sensitive adenylate cyclase; details: Nathanson et al. 1981; cited from earlier work
# [13] = FIG. 3, hornworm larvae nerve cord
# T2 sequence (P18901 whole entry): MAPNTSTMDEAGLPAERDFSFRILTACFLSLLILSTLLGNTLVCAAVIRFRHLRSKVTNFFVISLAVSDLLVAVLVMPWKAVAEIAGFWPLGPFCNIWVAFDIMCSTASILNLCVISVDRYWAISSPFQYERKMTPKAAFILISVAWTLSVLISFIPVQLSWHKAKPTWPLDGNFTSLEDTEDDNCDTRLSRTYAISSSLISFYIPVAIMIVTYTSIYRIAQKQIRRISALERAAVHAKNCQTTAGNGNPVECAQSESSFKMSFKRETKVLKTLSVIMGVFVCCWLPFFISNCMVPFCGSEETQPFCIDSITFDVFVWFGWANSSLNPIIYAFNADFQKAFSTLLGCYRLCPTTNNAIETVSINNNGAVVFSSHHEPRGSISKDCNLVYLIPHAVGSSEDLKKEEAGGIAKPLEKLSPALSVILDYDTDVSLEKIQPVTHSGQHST
# T1 sequence (P10608 whole entry): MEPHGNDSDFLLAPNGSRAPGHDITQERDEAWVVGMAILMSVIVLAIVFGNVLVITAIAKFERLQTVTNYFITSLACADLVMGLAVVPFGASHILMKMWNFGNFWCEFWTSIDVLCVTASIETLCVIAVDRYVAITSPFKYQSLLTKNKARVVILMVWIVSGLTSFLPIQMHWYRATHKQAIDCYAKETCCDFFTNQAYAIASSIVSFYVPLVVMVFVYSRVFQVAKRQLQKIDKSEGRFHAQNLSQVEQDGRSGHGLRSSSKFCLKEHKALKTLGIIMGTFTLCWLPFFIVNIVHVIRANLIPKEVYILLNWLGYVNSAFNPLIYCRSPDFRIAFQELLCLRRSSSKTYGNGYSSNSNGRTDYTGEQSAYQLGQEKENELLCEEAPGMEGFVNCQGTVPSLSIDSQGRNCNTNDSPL
# T3 sequence (P18090 whole entry): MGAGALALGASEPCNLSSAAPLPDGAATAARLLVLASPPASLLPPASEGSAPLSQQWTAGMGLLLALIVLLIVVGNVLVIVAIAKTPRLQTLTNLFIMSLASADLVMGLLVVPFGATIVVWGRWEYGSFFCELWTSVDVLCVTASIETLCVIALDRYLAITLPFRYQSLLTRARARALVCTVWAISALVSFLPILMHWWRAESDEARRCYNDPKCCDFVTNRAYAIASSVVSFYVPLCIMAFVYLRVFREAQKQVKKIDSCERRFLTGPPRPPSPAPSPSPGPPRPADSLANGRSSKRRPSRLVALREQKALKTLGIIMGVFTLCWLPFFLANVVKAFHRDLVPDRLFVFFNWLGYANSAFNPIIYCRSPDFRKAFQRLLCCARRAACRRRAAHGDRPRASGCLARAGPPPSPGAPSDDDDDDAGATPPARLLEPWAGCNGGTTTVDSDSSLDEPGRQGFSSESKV
compound,measurement,setting,value
"CCCCNc1ncnc2c1nc(SCc1ccccc1)n2[C@@H]1O[C@@H]2COP(=O)(O)O[C@H]2[C@H]1O [n-butylaminobenzylthio cyclic AMP, 6-n-butylamino-8-benzylthio-cyclic AMP, reference compound]",antifeeding activity,"[1]; concentration of 1%, absence of IBMX",showed antifeeding activity
same,effect of addition of IBMX on antifeeding / pesticidal activity,[1],increased by addition of IBMX
same,"amount of cyclic AMP analogue present after 4 hours, with IBMX versus without",[2],more than doubled
"NCC(O)c1ccc(O)cc1 (racemic) [octopamine, reference compound]",activation of adenylate cyclase in nerve cord,[3]; FIG. 1,potent activators
same,stimulation of adenylate cyclase,[4],neither octopamine nor NC5 were active
same,stimulation of adenylate cyclase,[5],neither octopamine nor NC5 caused any significant enzyme stimulation
same,EC50 for stimulated light emission,[6],about 5 nmoles/tail
same,Ki for inhibition of feeding by the larvae,[1]; applied to leaves,0.5 mg/leaf
same,rank order antifeeding effectiveness,"[1]; based on the EC50 of the octopamine agonist, alone or +IBMX",DDCDM+IBMX=NC7+IBMX>Octopamine+IBMX=DDCDM alone>NC7 alone>octopamine alone
same,behaviour of larvae feeding on treated leaves,[1]; in vivo,"tremors, hyperactivity, and leaf walk-off behavior"
same,pesticidal activity,[1]; no IBMX,little pesticidal activity
same,effect of addition of IBMX on antifeeding / pesticidal activity,[1],considerably elevated both cyclic AMP content and pesticidal activity
"CCc1cccc(CC)c1N=C1NCCN1 [NC 5, 2-(2,6-diethylphenylimino)imidazolidine]",Ka (half-maximal activation),[7],about 1 μM
same,Ka fold lower than that due to octopamine,[7],20 fold
same,maximal stimulation relative to octopamine,[7],equal to that caused by octopamine
same,Ka ratio to octopamine,"[7]; Table 2, clonidines",19.0
same,Vmax (% OCT),"[7]; Table 2, clonidines, N.A. = no activity",97 % OCT
same,activity as an octopamine antagonist,[7]; combinations of octopamine and NC5,no activity as an octopamine antagonist
same,lowest concentration with significant stimulation,[7]; unit not given,3×10^-8
same,stimulation of adenylate cyclase,[8],almost completely inactive
same,inhibition of basal adenylate cyclase activity,[9],In none of the three mammalian tissues did NC5 cause any inhibition
same,stimulation of adenylate cyclase,[4],neither octopamine nor NC5 were active
same,inhibition of basal adenylate cyclase activity,[10],In none of the three mammalian tissues did NC5 cause any inhibition
same,inhibition of basal adenylate cyclase activity,[5],In none of the three mammalian tissues did NC5 cause any inhibition
same,stimulation of adenylate cyclase,[5],neither octopamine nor NC5 caused any significant enzyme stimulation
same,EC50 for stimulated light emission,[6],about 0.3 nmoles
same,times as potent as octopamine,[6]; light emission EC50,more than 16 times
same,% Leaf Remaining,"[1]; Table 5, agonist 3 × 10^-1 gm/100 ml, IBMX 0.1 g/100 ml",70%
same,effect of addition of IBMX on antifeeding / pesticidal activity,[1],substantial increases in the potency
C=C[C@@]1(C)CC(=O)[C@]2(O)[C@@]3(C)[C@@H](O)CCC(C)(C)[C@@H]3[C@H](O)[C@H](OC(C)=O)[C@@]2(C)O1 [forskolin],Ka ratio,[11],0.22
same,Vmax,[11],100%
same,Ka ratio,[3]; [13],0.20
same,Vmax,[3]; [13],about 100%
same,antifeeding activity,"[1]; compound itself, in words",has antifeeding activity
same,effect of addition of IBMX on antifeeding / pesticidal activity,[1],enhanced
"CNC=Nc1ccc(Cl)cc1C [DCDM, N-demethylchlordimeform]",potency relative to octopamine as partial agonist of light organ octopamine-stimulated adenylate cyclase,[12],about six-fold more potent than octopamine
